Reference: patent publication US11958887B2, “Gene therapy for tuberous sclerosis” (The General Hospital Corporation, priority 2017, dated 2024)

System: Tsc2^c/c mice injected ICV with AAV1-CBA-Cre
Experiment: Survival of Tsc2^c/c mice lacking tuberin (AAV1-CBA-Cre ICV) after treatment
Format: in vivo
Settings: AAV1-CBA-Cre ICV at P0; no cTuberin vector; vigabatrin 200 mg/kg
Method: Experimental research protocols were approved by the Institutional Animal Care and Use Committee (IACUC) for the Massachusetts General Hospital (MGH) following the guidelines of the National Institutes of Health for the Care and Use of Laboratory Animals. Experiments were performed on Tsc2^c/c floxed mice (Onda et al., J. Clin. Invest. 104(6):687-695, 1999). In response to Cre recombinase, the Tsc2^c/c alleles are converted to null alleles, and the lacZallele expresses β-galactosidase. These mice have a normal, healthy lifespan.
For vector injections, on the day of birth (postnatal day 0 (P0)) or on P3, neonates were cryo-anesthetized and injected with 1 μl or 2 μl of viral vector AAV1-CBA-Cre into each cerebral lateral ventricle with a glass micropipette ([…] diameter at the tip) using a Narishige® IM300 microinjector at a rate of 2.4 psi/sec (Narshige International, East Meadow, NY). Mice were then placed on a warming pad and returned to their mothers after regaining normal color and full activity typical of newborn mice.
At 3 weeks of age (P21) mice were anesthetized by isoflurane inhalation (3.5% isoflurane in an induction chamber, then maintained anesthetized with 2-3% isoflurane and 1-2 liter/min oxygen for the duration of the experiment). […]

C=CC(N)CCC(=O)O (stereo not shown) [vigabatrin]
median survival: 27 days
